According to PMC4659430 (Journal of biomolecular screening, 2015):
Entries after “also recorded” stand apart in the source; their conditions may differ.

Assays:
Format in all cases: cell-based
human M4 (hM4) [1] = target: T1, human M4 (hM4) (Homo sapiens, UniProt P08173); experiment: M4 multiparametric FLIPR calcium assay, PAM mode; settings: compound tested at 3 µM, versus EC20 acetylcholine
T1 sequence (P08173 1-479): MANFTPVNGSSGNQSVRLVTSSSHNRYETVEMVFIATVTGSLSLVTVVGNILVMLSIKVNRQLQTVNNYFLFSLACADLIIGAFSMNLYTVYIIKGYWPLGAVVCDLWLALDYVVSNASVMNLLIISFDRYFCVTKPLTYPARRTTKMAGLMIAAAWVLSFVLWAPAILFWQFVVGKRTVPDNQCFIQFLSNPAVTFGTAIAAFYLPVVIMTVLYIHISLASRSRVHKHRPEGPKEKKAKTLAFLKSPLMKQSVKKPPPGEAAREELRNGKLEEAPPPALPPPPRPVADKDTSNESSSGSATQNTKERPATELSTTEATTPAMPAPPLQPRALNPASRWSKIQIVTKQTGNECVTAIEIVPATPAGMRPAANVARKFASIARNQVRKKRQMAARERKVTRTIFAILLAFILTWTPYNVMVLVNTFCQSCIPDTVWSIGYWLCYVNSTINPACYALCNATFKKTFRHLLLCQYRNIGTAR

human M4 (hM4) [2] = target: T1, human M4 (hM4); experiment: M4 multiparametric FLIPR calcium assay, agonist mode; settings: compound tested at 3 µM, versus DMSO
human M4 (hM4) [3] = target: T1, human M4 (hM4); experiment: M4 multiparametric FLIPR calcium assay, antagonist mode; settings: compound tested at 3 µM, versus EC80 acetylcholine

SMILES | response in PAM mode (kinetic trace) (human M4 (hM4) [1]) | response in agonist mode (kinetic trace) (human M4 (hM4) [2]) | response in antagonist mode (kinetic trace) (human M4 (hM4) [3])
COc1ccc(CNC(=O)c2sc3nc(C)cc(C)c3c2N)cc1 [ML108] | classified as PAMs | active; also recorded: yielded responses in the agonist mode | 
C/C=C(/C)C(=O)O[C@H]1C(C)=C2[C@H]([C@@H]1OC(=O)CCCCCCC)[C@@](C)(OC(C)=O)C[C@H](OC(=O)CCC)[C@@]1(O)[C@H]2OC(=O)[C@@]1(C)O [thapsigargin] | hit in all modes | hit in all modes | hit in all modes
